Test results taken from patent publication US20260055126A1, “SMALL MOLECULE COMPOUNDS WITH PHOSPHORYLATED ARYL STRUCTURES AND USE THEREOF” (HANGZHOU PHECDAMED CO., LTD., priority 2022, published 2026).

Columns and labels:
[1] = In vitro liver microsome stability, dog; type: in vitro ADME; conditions: dog liver microsomes
Procedure: Testosterone is selected as the positive reference compound. The specific method is as follows:
Preparing 0.1MK3 PO4 (pH 7.4) buffer and 3×NADPH stock solution (6 mM, 5 mg/mL), and preheating in a 37° C. water bath; preparing spiking solution of tested compound and control compound: adding 5 μL compound stock solution (10 mM) to 95 μL acetonitrile; preparing 1.5 μM spiking solution in microsomes (0.75 mg/mL): add 1.5 μL spiking solution and 18.75 μL liver microsome solution (20 mg/mL) to 479.75 μL K3PO4 buffer; taking 30 μL spiking solution in microsomes and adding it to the multiwell plate, and incubating at 37° C. for 5 min; adding 15 μL of NADPH stock solution to each well, starting to react, and timing; adding 150 μL of acetonitrile solution containing IS at 0 min, 5 min, 15 min, 30 min, 45 min and 60 min respectively to terminate the reaction; after 10 min of oscillation, centrifuging the reaction at 6000 rpm for 15 min; taking 80 μL of supernatant from each well for LC/MS detection and calculating Ti/2.
Liver microsomes of mice, rats, dogs, and human used in the experiment are purchased from Xenotech.

[2] = Mouse plasma pharmacokinetic test; type: in vivo, CD-1 mice
From the text: In this example, different compounds are used to perform a mouse pharmacokinetic experiment, and the specific steps are as follows: Animal information: CD-1 mice, male, about 20 g, purchase from Beijing Weitonglihua Experimental Animal Technology Co., Ltd.
Animal dietary status: Animals are not fasted before administration and allowed to drink water freely.
Compound preparation method: for intragastric administration (IG)(G1 group), preparing with 0.5% CMC-Na, and for intravenous injection(IV) (G2 group), preparing 5% DMSO+30% PEG400+65% water. […]
Sampling time points of G1 group: 8 points in total, namely 10 min, 30 min, 1 h, 2 h, 4 h, 6 h, 8 h and 24 h after administration, among them, animals G1M01-G1M03 are sampled at 3 time points, namely 10 min, 1 h and 6 h; animals G1M04-G1M06 are sampled at 3 time points, namely 30 min, 2 h and 8 h; animals G1M07-G1M09 are sampled at 2 time points, namely 4 h and 24 h.
Sampling time points of G2 group: 9 points in total, namely 5 min, 10 min, 30 min, 1 h, 2 h, 4 h, 6 h, 8 h, 24 h after administration. It is recommended that animals G2M01-G2M03 are sampled at 3 time points, namely 5 min, 1 h, and 6 h; animals G2M04-G2M06 are sampled at 3 time points, namely 10 min, 2 h, and 8 h; animals G2M07-G2M09 are sampled at 3 time points, namely 30 min, 4 h, and 24 h.
Sample collection: On the day of the experiment, collecting approximately 0.1 mL of whole blood samples at each preset time point and placing in EDTA-K2 anticoagulant tubes.
Sample processing: Within 30 minutes after whole blood sample collection, centrifuging at 4° C., 12,000 rpm for 5 minutes to separate plasma, collecting the upper plasma sample into a sample tube, and freezing the plasma sample in a −10˜−30° C. refrigerator within 30 minutes and transferring to a −60˜−90° C. refrigerator within 24 hours.
Sample testing and data processing: LC/MS/MS testing, WinNonlin for fitting and pharmacokinetic parameter calculation.

[3] = SD rat plasma pharmacokinetic test; type: in vivo
Procedure: Animal information: SD rats, male, n=6, about 180-200 g, purchased from Sibeifu (Beijing) Biotechnology Co., Ltd.
Animal dietary status: Animals are fasted for at least 12 h before administration and resumed eating 4h after administration; during the experiment, animals are allowed to drink water freely.
Administration: administering the compound to experimental animals (n=3) by intragastric administration at a dose of 10 mg/kg, and the solvent is 0.5% CMC-Na; administering the compound to experimental animals (n=3) by intravenous injection at a dose of 1 mg/kg, and the solvent is DMSO:PEG400:normal saline=5:30:65, preparing immediately before use.
Sample collection: collecting about 0.25 mL of whole blood at each time point, anticoagulating with EDTA-K2, and placing on ice immediately after collection, within 0.5 h after collection, centrifuging at 4° C., 2000 g for 5 min, and sucking up all plasma and placing in labeled EP tubes, placing the EP tubes on ice, and freezing the plasma samples in a −60˜−90° C. refrigerator within 0.5 h.
Sample processing: centrifuging whole blood samples at 4° C., 2000 g for 5 min within 30 min after collection to separate plasma, and collecting the upper plasma sample into a sample tube.
Sample testing and data processing: Using LC-MS/MS method to detect the concentration of the original drug in plasma samples at each time point. WinNonlin is used for fitting and pharmacokinetic parameter calculation.

Work on `CP(C)(=O)c1ccc(NCc2ccc(C(F)(F)F)cc2)c(-c2nccc(OC3COC3)n2)c1` [Compound 17] yielded a dog half-life [1] of 2.35 h, a F % ([2]; CD-1 mice, IG 10 mg/kg vs IV 1 mg/kg) of 51.9% and an AUC0-t ([2]; CD-1 mice, single IG 10 mg/kg) of 4662 ng·h/mL. For the same compound, the “AUC0-∞” value ([2]; CD-1 mice, single IG 10 mg/kg) was 5688 ng·h/mL, the Cmax ([2]; CD-1 mice, single IG 10 mg/kg) was 1477 ng/mL and the MRT0-t ([2]; CD-1 mice, single IG 10 mg/kg) was 2.84 h. The “MRT0-∞” value ([2]; CD-1 mice, single IG 10 mg/kg) was 4.66 h, the Tmax ([2]; CD-1 mice, single IG 10 mg/kg) was 0.5 h and the t1/2 ([2]; CD-1 mice, single IG 10 mg/kg) was 3.46 h. The AUC0-t ([2]; CD-1 mice, single IV 1 mg/kg) was 899 ng·h/mL, the “AUC0-∞” value ([2]; CD-1 mice, single IV 1 mg/kg) was 924 ng·h/mL and the CL ([2]; CD-1 mice, single IV 1 mg/kg) was 18.03 mL/min/kg. For the same compound, the Cmax ([2]; CD-1 mice, single IV 1 mg/kg) was 598 ng/mL, the MRT0-t ([2]; CD-1 mice, single IV 1 mg/kg) was 1.55 h and the “MRT0-∞” value ([2]; CD-1 mice, single IV 1 mg/kg) was 1.80 h. The Vss ([2]; CD-1 mice, single IV 1 mg/kg) was 1.947 L/kg, the t1/2 ([2]; CD-1 mice, single IV 1 mg/kg) was 1.94 h and the “pharmacokinetic properties in mice” value ([2]; mice) was “good pharmacokinetic properties”. For the same compound, the “pharmacokinetic properties in SD rats” value [3] was “good pharmacokinetic properties”, the AUC0-t ([3]; SD rats, IG 10 mg/kg) was 4440 ng·h/mL and the “AUC0-∞” value ([3]; SD rats, IG 10 mg/kg) was 4510 ng·h/mL. For the same compound, the Cmax ([3]; SD rats, IG 10 mg/kg) was 1480 ng/mL, the MRT0-t ([3]; SD rats, IG 10 mg/kg) was 2.25 h and the “MRT0-∞” value ([3]; SD rats, IG 10 mg/kg) was 2.37 h. The Tmax ([3]; SD rats, IG 10 mg/kg) was 0.50 (0.5, 0.5) h, the t1/2 ([3]; SD rats, IG 10 mg/kg) was 1.26 h and the “Absolute bioavailability (%)” value ([3]; SD rats, IG 10 mg/kg vs IV 1 mg/kg) was 84.9%. The AUC0-t ([3]; SD rats, IV 1 mg/kg) was 506 ng·h/mL, the “AUC0-∞” value ([3]; SD rats, IV 1 mg/kg) was 523 ng·h/mL and the CL ([3]; SD rats, IV 1 mg/kg) was 32.83 mL/min/kg. For the same compound, the Cmax ([3]; SD rats, IV 1 mg/kg) was 333 ng/mL, the MRT0-t ([3]; SD rats, IV 1 mg/kg) was 1.52 h and the “MRT0-∞” value ([3]; SD rats, IV 1 mg/kg) was 1.73 h. For the same compound, the Vss ([3]; SD rats, IV 1 mg/kg) was 3.36 L/kg and the t1/2 ([3]; SD rats, IV 1 mg/kg) was 1.18 h.
